Results taken from US11964971B2, “Methods and compositions for modulating splicing” (Skyhawk Therapeutics, Inc., priority 2019, dated 2024).
Like-named read-outs stand apart in the source and are kept apart here.

Legend:
[1] = test system: SMN FL and SMN Δ7; assay: Quantitative splicing assay (SMN) in SMA patient fibroblasts (GM03813); assay type: cell-based; conditions: Homo sapiens, Fibroblast, read-out: SMN2 Splicing FL EC50 (nM)*
Description: Spinal muscular atrophy (SMA) patient fibroblasts (GM03813, Coriell) are plated in 96-well plates at 50,000 cells/well. […] Treated cells are lysed and cDNA synthesized using the Fast Advanced Cells-to-Ct kit (Thermofisher A35378) according to the manufacturer's instructions. 2 μL of each cDNA are used in qPCR reactions. […] Reactions are run in a Quant Studio 6 qPCR instrument with default settings.

[2] = test system: SMN protein; assay: SMN protein assay (MSD) in SMA patient fibroblasts (GM03813); assay type: cell-based, human
In short: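 Absolute SMN protein measured by Mesoscale Discovery assay in lysates, calibrated per plate with SMN standards (1–19.5 μg/ml). Cells: GM03813 SMA fibroblasts, 7000/well, 48 h compound exposure at doses of 2.5 μM down to 0.6 nM.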

[3] = test system: MDR1-MDCK cell monolayers; conditions: dog, MDCK-MDR1, 120 min, 5 μM, pH 7.4
[4] = test system: MDR1; assay: in vitro; conditions: dog; for Papp A→B at 120 min, 5 μM: MDCK-MDR1, pH 7.4, MDCK-MDR1: Papp A-B (10^−6, cm/s); for Papp B→A at 120 min, 5 μM: MDCK-MDR1, pH 7.4, MDCK-MDR1: Papp B-A (10^−6, cm/s)
[5] = test system: MDR1 (P-gp); assay: MDCK-MDR1 permeability assay, blood-brain-barrier penetration potential; conditions: dog, MDCK-MDR1, pH 7.4, MDCK-MDR1 Efflux Ratio

SMILES | EC50 ([1]; class symbol) | EC50 [2] | MDCK-MDR1: % Recov A-B (%) [3] | MDCK-MDR1: % Recov B-A (%) [3] | Papp A→B at 120 min, 5 μM [4] | Papp B→A at 120 min, 5 μM [4] | efflux ratio at 120 min, 5 μM [5] | EC50 ([1]; given as number)
CN(c1cnc(-c2cc(F)c(-c3cn[nH]c3)cc2O)cn1)[C@H]1C[C@@H]2CCC(N2)[C@H]1F (single isomer, unassigned) [Compound 40E2] | 16 to 50 nM | 0.01 to 15 nM | 59% | 72% | 7.33 ×10⁻⁶ cm/s | 37.1 ×10⁻⁶ cm/s | 5 | 
CN(c1cnc(-c2ccc(-c3cc[nH]c(=O)c3)cc2O)cn1)[C@H]1C[C@@H]2CC[C@@H](N2)[C@H]1F [Compound 76E2, 4-(4-(5-(((1R,2R,3S,5S)-2-fluoro-8-azabicyclo[3.2.1]octan-3-yl)(methyl)amino)pyrazin-2-yl)-3-hydroxyphenyl)pyridin-2(1H)-one] | 101 to 500 nM | 16 to 50 nM | 93% | 75% | 0.37 ×10⁻⁶ cm/s | 28.9 ×10⁻⁶ cm/s | 78 | 
CN(C)C(=O)c1cc2cc(O)c(-c3cnc(N(C)[C@H]4CC5CC[C@@H](N5)[C@H]4F)cn3)cc2o1 (single isomer, unassigned) [Compound 7E2] | 501 to 10000 nM | 501 to 10000 nM | 90% | 93% | 1.92 ×10⁻⁶ cm/s | 59.9 ×10⁻⁶ cm/s | 31 | 
CN(c1cnc(-c2ccc(-c3cnn(CF)c3)cc2O)cn1)[C@@H]1CC2CC[C@H](N2)[C@@H]1F (single isomer, unassigned) [Compound 42E1] | 51 to 100 nM | 16 to 50 nM | 48% | 59% | 5.38 ×10⁻⁶ cm/s | 30.4 ×10⁻⁶ cm/s | 6 | 
CN(c1cnc(-c2ccc(-c3cn[nH]c3)cc2O)cn1)[C@H]1C[C@]2(C)CCC[C@@](C)(N2)[C@H]1F [Compound 23E2, 2-(5-(((1R,2S,3S,5S)-2-fluoro-1,5-dimethyl-9-azabicyclo[3.3.1]nonan-3-yl)(methyl)amino)pyrazin-2-yl)-5-(1H-pyrazol-4-yl)phenol] | 16 to 50 nM | 0.01 to 15 nM | 39% | 65% | 5.71 ×10⁻⁶ cm/s | 13.6 ×10⁻⁶ cm/s | 2 | 
CN(c1cnc(-c2cc(F)c(-c3cn[nH]c3)cc2O)cn1)[C@@H]1CC2CC[C@H](N2)[C@@H]1F (single isomer, unassigned) [Compound 40E1] | 51 to 100 nM | 16 to 50 nM | 54% | 75% | 6.63 ×10⁻⁶ cm/s | 39.2 ×10⁻⁶ cm/s | 6 | 
CN(c1cnc(-c2ccc(-c3cn[nH]c3)cc2O)cn1)[C@H]1C[C@@H]2COCC(N2)[C@H]1F (single isomer, unassigned) [Compound 72E2] | 501 to 10000 nM | 101 to 500 nM | 96% | 113% | 9.82 ×10⁻⁶ cm/s | 82.5 ×10⁻⁶ cm/s | 8 | 
COc1cc(-c2ccc(-c3cnc(N(C)[C@@H]4CC5COC[C@H](N5)[C@@H]4F)cn3)c(O)c2)ccn1 (single isomer, unassigned) [Compound 81E1] | 501 to 10000 nM | 501 to 10000 nM | 28% | 47% | 2.69 ×10⁻⁶ cm/s | 3.08 ×10⁻⁶ cm/s | 1 | 
CN(c1cnc(-c2cc(F)c(-c3ccn(C)c(=O)c3)cc2O)cn1)[C@H]1C[C@@H]2CCC(N2)[C@H]1F (single isomer, unassigned) [Compound 13E2] |  | 0.01 to 15 nM | 80% | 87% | 1.97 ×10⁻⁶ cm/s | 40.8 ×10⁻⁶ cm/s | 21 | 398 nM
CN(c1cnc(-c2cc(F)c(-c3cn[nH]c3)cc2O)cn1)[C@@H]1C[C@@]2(C)CC[C@](C)(N2)[C@@H]1F [Compound 57E1, 4-fluoro-2-(5-(((1S,2R,3R,5R)-2-fluoro-1,5-dimethyl-8-azabicyclo[3.2.1]octan-3-yl)(methyl)amino)pyrazin-2-yl)-5-(1H-pyrazol-4-yl)phenol] | 101 to 500 nM | 16 to 50 nM | 37% | 59% | 5.9 ×10⁻⁶ cm/s | 18.8 ×10⁻⁶ cm/s | 3 | 
COc1cc(-c2ccc(-c3cnc(N(C)[C@@H]4CC5CC(F)(F)[C@@H](C4)N5)cn3)c(O)c2)cnn1 (single isomer, unassigned) [Compound 68E2] | 501 to 10000 nM | 501 to 10000 nM | 66% | 89% | 9.81 ×10⁻⁶ cm/s | 47.2 ×10⁻⁶ cm/s | 5 | 
CN(c1cnc(-c2cc(F)c(-c3cn[nH]c3)cc2O)cn1)[C@H]1C[C@]2(C)CC[C@@](C)(N2)[C@H]1F [Compound 57E2, 4-fluoro-2-(5-(((1R,2S,3S,5S)-2-fluoro-1,5-dimethyl-8-azabicyclo[3.2.1]octan-3-yl)(methyl)amino)pyrazin-2-yl)-5-(1H-pyrazol-4-yl)phenol] | 501 to 10000 nM | 0.01 to 15 nM | 35% | 64% | 5.8 ×10⁻⁶ cm/s | 20 ×10⁻⁶ cm/s | 3 | 
CN(c1cnc(-c2ccc(-c3cnn(C)c3)cc2O)cn1)[C@@H]1C[C@H]2CCC(N2)[C@@H]1F (single isomer, unassigned) [Compound 3E1] | 101 to 500 nM | 16 to 50 nM | 56% | 66% | 8.42 ×10⁻⁶ cm/s | 22 ×10⁻⁶ cm/s | 3 | 
CN(c1cnc(-c2ccc(-c3cnn(C)c3)cc2O)cn1)[C@H]1CC2CC[C@@H](N2)[C@H]1F (single isomer, unassigned) [Compound 3E2] | 101 to 500 nM | 16 to 50 nM | 53% | 68% | 9.7 ×10⁻⁶ cm/s | 27.1 ×10⁻⁶ cm/s | 3 | 
CN(c1cnc(-c2ccc(-c3ccn(C)c(=O)c3)cc2O)cn1)[C@@H]1C[C@H]2CCC[C@H](N2)[C@@H]1F [Compound 5E1, 4-(4-(5-(((1S,2S,3R,5R)-2-fluoro-9-azabicyclo[3.3.1]nonan-3-yl)(methyl)amino)pyrazin-2-yl)-3-hydroxyphenyl)-1-methylpyridin-2(1H)-one] | 51 to 100 nM | 0.01 to 15 nM | 84% | 90% | 2.04 ×10⁻⁶ cm/s | 50.3 ×10⁻⁶ cm/s | 25 | 
COc1cc(-c2ccc(-c3cnc(N(C)[C@H]4C[C@]5(C)CC[C@@](C)(N5)[C@H]4F)cn3)c(O)c2)cnn1 [Compound 25E2, 2-(5-(((1R,2S,3S,5S)-2-fluoro-1,5-dimethyl-8-azabicyclo[3.2.1]octan-3-yl)(methyl)amino)pyrazin-2-yl)-5-(6-methoxypyridazin4-yl)phenol] | 501 to 10000 nM | 101 to 500 nM | 42% | 70% | 5.01 ×10⁻⁶ cm/s | 22.9 ×10⁻⁶ cm/s | 5 | 
